Assay results: US5134137A, “Cephalosporin antibiotics” (The Upjohn Company, priority 1990, dated 1992)
Converted amounts (≈) assume the structure as drawn. Read-outs that look alike come from different tables or passages of the source.

Key:
Type in all cases: cell-based
[1] = system: Corynebacterium pyogenes; assay: MIC, agar dilution, Corynebacterium pyogenes; details: strain 213-2
Protocol: (§1) Stock solution of each test antibiotic compound were prepared to have a concentration of 2 mg. of the test compound per milliliter in sterile water of 0.1M ammonium acetate solution. The amount of each compound used was adjusted for base compound activity as calculated from the purity data for the selected batch of compound.
(§2) The dilution procedure described by Washington and Sutter [Manual of Clinical Microbiology, 3rd, Edit. (Lennett, E. H. et al, Eds.), pp. 453-458 (1980), American Society for Microbiology, Washington, D.C.] was modified so that serial concentrations of 128 to 0.0625 microgram/ml. in sterile water was obtained. Then 1.5 ml. aliquots of these test antibiotic dilution mixtures are added to 13.5 molten (50° C.) Mueller-Hinton agar. Each resulting mixture is poured into 15×100 mm, sterile Petri plates and allowed to dry at room temperature overnight.
(§3) Test bacterial cultures are maintained at -70° C. on glass beads. [See R. J. Yancey, Jr. et al, Amer. Jr. of Vet. Research, 48, No. 7, pp. 1050-1053, (1987)]. At least one bacteria-laden bead per culture is dropped into one ml. of brain heart infusion (BHI) broth for overnight culture at 37° C. in 5% V/V carbon dioxide in air atmosphere.
(§4) On the data of assay, 2 to 8 drops of the bacterial broth cultures are transferred to fresh BHI broth (1 ml.) and the mixture is incubated for 4 to 6 hours at 37° C. in a 5% V/V carbon dioxide in air atmosphere. The resulting cultures are then diluted to match a 0.5 MacFarland standard and further diluted 1:20 V/V with sterile saline solution.
(§5) A 0.001 ml. drop of the resulting mixture, containing approximately 10^3 to 10^4 colony forming units (CFU) of each test bacteria organism, is dispensed onto the surface of the test antibiotic compound test plates with a Steer's type replicator. The resulting innoculated plates are incubated 16 to 18 hours at 37° C. with a carbon dioxide atmosphere.
(§6) Stock solutions of each test antibiotic compound were prepared to have a concentration of 2 mg. of the test compound per milliliter in sterile water of 0.1M ammonium acetate solution. The amount of each compound used was adjusted for base compound activity as calculated from the purity data for the selected batch of compound.
(§7) The dilution procedure described by Washington and Sutter [Manual of Clinical Microbiology, 3rd, Edit. (Lennett, E. H. et al, Eds.), pp. 453-458 (1980), American Society for Microbiology, Washington, D.C.] was modified so that serial concentrations of 128 to 0.0625 microgram/ml. in sterile water was obtained. Then 1.5 ml. aliquots of these test antibiotic dilution mixtures are added to 13.5 molten (50° C.) Mueller-Hinton agar. Each resulting mixture is poured into 15×100 mm. sterile Petri plates and allowed to dry at room temperature overnight.
(§8) The dilution procedure described by Washington and Sutter [Manual of Clinical Microbiology, 3rd, Edit. (Lennett, E. H. et al, Eds.), pp. 453-458 (1980), American Society for Microbiology. Washington, D.C.] was modified so that serial concentrations of 128 to 0.0625 microgram/ml. in sterile water was obtained. Then 1.5 ml. aliquots of these test antibiotic dilution mixtures are added to 13.5 molten (50° C.) Mueller-Hinton agar. Each resulting mixture is poured into 15×100 mm. sterile Petri plates and allowed to dry at room temperature overnight.
(§9) Test bacterial culture are maintained at -70° C. on glass beads. [See R. J. Yancey, Jr. et al, Amer. Jr. of Vet. Research, 48, No. 7, pp. 1050-1053, (1987)]. At least one bacteria-laden bead per culture is dropped into one ml. of brain heart infusion (BHI) broth for overnight culture at 37° C. in 5% V/V carbon dioxide in air atmosphere.
(§10) On the day of assay, 2 to 8 drops of the bacterial broth cultures are transferred to fresh BHI broth (1 ml.) and the mixture is incubated for 4 to 6 hours at 37° C. in a 5% V/V carbon dioxide in air atmosphere. […]

[2] = system: Micrococcus luteus; assay: MIC, agar dilution, Micrococcus luteus; details: strain UC130
Protocol: as §1, §2, §3, §4, §5, §6, §7, §8, §9, §10

[3] = system: Salmonella choleraesuis; assay: MIC, agar dilution, Salmonella choleraesuis
Protocol: as §1, §2, §3, §4, §5, §6, §7, §8, §9, §10

[4] = system: Streptococcus suis; assay: MIC, agar dilution, Streptococcus suis; details: strain 650-2
Protocol: as §1, §2, §3, §4, §5, §6, §7, §8, §9, §10

[5] = system: Streptococcus uberis; assay: MIC, agar dilution, Streptococcus uberis
Protocol: as §1, §2, §3, §4, §5, §6, §7, §8, §9, §10

[6] = system: Salmonella typhimurium; assay: MIC, agar dilution, Salmonella typhimurium
Protocol: as §1, §2, §3, §4, §5, §6, §7, §8, §9, §10

[7] = system: Bordetella bronchiseptica; assay: MIC, agar dilution, Bordetella bronchiseptica; details: strain UC6313
Protocol: as §1, §2, §3, §4, §5, §6, §7, §8, §9, §10

[8] = system: Streptococcus bovis; assay: MIC, agar dilution, Streptococcus bovis; details: strain UC6281
Protocol: as §1, §2, §3, §4, §5, §6, §7, §8, §9, §10

[9] = system: Enterococcus faecalis; assay: MIC, agar dilution, Enterococcus faecalis; details: strain UC694
Protocol: as §6, §2, §3, §4, §5, §1, §7, §8, §9, §10

[10] = system: Enterococcus faecium; assay: MIC, agar dilution, Enterococcus faecium; details: strain UC241
Protocol: as §6, §2, §3, §4, §5, §1, §7, §8, §9, §10

[11] = system: Streptococcus agalactiae; assay: MIC, agar dilution, Streptococcus agalactiae
Protocol: as §1, §2, §3, §4, §5, §6, §7, §8, §9, §10

[12] = system: Staphylococcus aureus; assay: MIC, agar dilution, Staphylococcus aureus
Protocol: as §1, §2, §3, §4, §5, §6, §7, §8, §9, §10

[13] = system: Escherichia coli; assay: MIC, agar dilution, Escherichia coli
Protocol: as §1, §2, §3, §4, §5, §6, §7, §8, §9, §10

[14] = system: Pasteurella hemolytica; assay: MIC (minimum inhibitory concentration), agar dilution, Pasteurella hemolytica
Protocol: as §1, §2, §3, §4, §5, §6, §7, §8, §9, §10

[15] = system: Pasteurella multocida; assay: MIC, agar dilution, Pasteurella multocida; details: strain UC9581
Protocol: as §1, §2, §3, §4, §5, §6, §7, §8, §9, §10

[16] = system: Pseudomonas aeruginosa; assay: MIC, agar dilution, Pseudomonas aeruginosa; details: strain ATCC 27853
Protocol: as §1, §2, §3, §4, §5, §6, §7, §8, §9, §10

[17] = system: Streptococcus dysgalactiae; assay: MIC, agar dilution, Streptococcus dysgalactiae; details: strain UC251
Protocol: as §1, §2, §3, §4, §5, §6, §7, §8, §9, §10

CO/N=C(\C(=O)N[C@@H]1C(=O)N2C(C(=O)O)=C(CSSC)CS[C@H]12)c1csc(N)n1 [Example 9, 7-[2-(2-amino-1,3-thiazo-4-yl]-2-(methoxyimino)acetamimdo]-3-methyldithiomethyl-3-cephem-4-carboxylic acid]
MIC ([1]; read-out: MIC): 0.5 µg/mL (≈ 1.05 µM) | MIC ([2]; Micrococcus luteus, read-out: MIC): 0.13 µg/mL (≈ 0.273 µM) | MIC ([3]; Salmonella enterica, CHOLERAESUIS / UC6073, strain UC6073, read-out: MIC): 1 µg/mL (≈ 2.1 µM) | MIC ([3]; Salmonella enterica, CHOLERAESUIS / UC6077, strain UC6077, read-out: MIC): 4 µg/mL (≈ 8.41 µM) | MIC ([4]; Streptococcus suis, read-out: MIC): ≤ 0.06 µg/mL | MIC ([5]; Streptococcus uberis, strain UC3946, read-out: MIC): 0.13 µg/mL (≈ 0.273 µM) | MIC ([5]; Streptococcus uberis, strain UC6159, read-out: MIC): 16 µg/mL (≈ 33.6 µM) | MIC ([6]; Salmonella enterica, TYPHIMURIUM / UC6162, strain UC6162, read-out: MIC): 1 µg/mL (≈ 2.1 µM) | MIC ([6]; Salmonella enterica, TYPHIMURIUM / UC6164, strain UC6164, read-out: MIC): 1 µg/mL (≈ 2.1 µM) | MIC ([7]; Bordetella bronchiseptica, read-out: MIC): > 32 µg/mL | MIC ([8]; Streptococcus equinus, read-out: MIC): ≤ 0.06 µg/mL | MIC ([9]; Enterococcus faecalis, read-out: MIC): > 32 µg/mL | MIC ([10]; Enterococcus faecium, read-out: MIC): > 32 µg/mL | MIC ([11]; Streptococcus agalactiae, strain UC3947, read-out: MIC): ≤ 0.06 µg/mL | MIC ([11]; Streptococcus agalactiae, strain UC6892, read-out: MIC): ≤ 0.06 µg/mL | MIC ([12]; Staphylococcus aureus, strain UC6093, read-out: MIC): 2 µg/mL (≈ 4.21 µM) | MIC ([12]; Staphylococcus aureus, strain UC6097, read-out: MIC): 2 µg/mL (≈ 4.21 µM) | MIC ([12]; Staphylococcus aureus, strain UC9203, read-out: MIC): 2 µg/mL (≈ 4.21 µM) | MIC ([13]; Escherichia coli, strain UC3784, read-out: MIC): 1 µg/mL (≈ 2.1 µM) | MIC ([13]; Escherichia coli, strain UC6720, read-out: MIC): 1 µg/mL (≈ 2.1 µM) | MIC ([13]; Escherichia coli, strain UC9670, read-out: MIC): 1 µg/mL (≈ 2.1 µM) | MIC ([14]; Pasteurella, strain UC6531, read-out: MIC): ≤ 0.06 µg/mL | MIC ([14]; Pasteurella, strain UC6532, read-out: MIC): ≤ 0.06 µg/mL | MIC ([14]; Pasteurella, strain UC9582, read-out: MIC): ≤ 0.06 µg/mL | MIC ([15]; Pasteurella multocida, read-out: MIC): ≤ 0.06 µg/mL | MIC ([16]; Pseudomonas aeruginosa, ATCC27853, read-out: MIC): > 32 µg/mL | MIC ([17]; Streptococcus dysgalactiae, read-out: MIC): ≤ 0.06 µg/mL

CCSSCC1=C(C(=O)O)N2C(=O)C(NC(=O)C(=NOC)c3csc(N)n3)C2SC1 (stereo not drawn) [Example 10, 7-[2-(2-amino-1,3-thiazol-4-yl)-2-(methoxyimino)acetamido]-3-ethyldithiomethyl-3-cephem-4-carboxylic acid]
MIC [1]: 32 µg/mL (≈ 65.4 µM) | MIC [2]: 0.5 µg/mL (≈ 1.02 µM) | MIC ([3]; strain UC6073): 16 µg/mL (≈ 32.7 µM) | MIC ([3]; strain UC6077): 32 µg/mL (≈ 65.4 µM) | MIC [4]: ≤ 0.06 µg/mL | MIC ([5]; strain UC3946): 0.25 µg/mL (≈ 0.511 µM) | MIC ([5]; strain UC6159): > 32 µg/mL | MIC ([6]; strain UC6162): 8 µg/mL (≈ 16.3 µM) | MIC ([6]; strain UC6164): 8 µg/mL (≈ 16.3 µM) | MIC [7]: 16 µg/mL (≈ 32.7 µM) | MIC [8]: > 32 µg/mL | MIC [9]: 32 µg/mL (≈ 65.4 µM) | MIC [10]: 32 µg/mL (≈ 65.4 µM) | MIC ([11]; strain UC3947): 2 µg/mL (≈ 4.08 µM) | MIC ([11]; strain UC6892): > 32 µg/mL | MIC ([12]; strain UC6093): 4 µg/mL (≈ 8.17 µM) | MIC ([12]; strain UC6097): 2 µg/mL (≈ 4.08 µM) | MIC ([12]; strain UC9203): 2 µg/mL (≈ 4.08 µM) | MIC ([13]; strain UC3784): 4 µg/mL (≈ 8.17 µM) | MIC ([13]; strain UC6720): 8 µg/mL (≈ 16.3 µM) | MIC ([13]; strain UC9670): 4 µg/mL (≈ 8.17 µM) | MIC ([14]; strain UC6531): 0.25 µg/mL (≈ 0.511 µM) | MIC ([14]; strain UC6532): 0.25 µg/mL (≈ 0.511 µM) | MIC ([14]; strain UC9582): 0.5 µg/mL (≈ 1.02 µM) | MIC [15]: 4 µg/mL (≈ 8.17 µM) | MIC [16]: > 32 µg/mL | MIC [17]: ≤ 0.06 µg/mL
